Results from US6358885B1, “Substituted phenylheterocyclic herbicides” (Mississippi State University, priority 1992, dated 2002).

Columns and labels:
Experiment in all cases: Test B preemergence/postemergence greenhouse plant response rating 0 to 10
cheatgrass = assay type: in vivo, Bromus secalinus; conditions: 0 to 10 scale
Source text: (§1) Seeds of barley (Hordeum vulgare), barnyardgrass (Echinochloa crus-galli), bedstraw (Galium aparine), blackgrass (Alopecurus myosuroides), […] (Bromus secalinus), chickweed (Stellaria media), cocklebur (Xanthium pensylvanicum), corn (Zea mays), cotton (Gossypium hirsutum), crabgrass (Digitaria spp.), giant foxtail (Setaria faberii), lambsquarters (Chenopodium album), morningglory (Ipomoea hederacea), rape (Brassica napus), rice (Oryza sativa), sorghum (Sorghum bicolor), soybean (Glycine max), sugar beet (Beta vulgaris), velvetleaf (Abutilon theophrasti), wheat (Triticum aestivum), wild buckwheat (Polygonum convolvulus), and wild oat (Avena fatua) and purple nutsedge. (Cyperus rotundus) tubers were planted and treated preemergence with test chemicals dissolved in a non-phytotoxic solvent. At the same time, these crop and weed species were also treated with postemergence applications of test chemicals. Plants ranged in height from two to eighteen cm (one to four leaf stage) for postemergence treatments. Treated plants and controls were maintained in a greenhouse for twelve to sixteen days, after which all species were compared to controls and visually evaluated. […] A dash (-) response means no test result.

wheat = assay type: in vivo, Triticum aestivum; conditions: 0 to 10 scale
Source text: as §1

sugar beet = assay type: in vivo, Beta vulgaris; conditions: 0 to 10 scale
Source text: as §1

sorghum = assay type: in vivo, Sorghum bicolor; conditions: 0 to 10 scale
Source text: as §1

crabgrass = assay type: in vivo, Digitaria spp.; conditions: 0 to 10 scale
Source text: as §1

purple nutsedge = assay type: in vivo, Cyperus rotundus; conditions: 0 to 10 scale
Source text: as §1

morningglory = assay type: in vivo, Ipomoea hederacea; conditions: 0 to 10 scale
Source text: as §1

cocklebur = assay type: in vivo, Xanthium pensylvanicum; conditions: 0 to 10 scale
Source text: as §1

rice = assay type: in vivo, Oryza sativa; conditions: 0 to 10 scale
Source text: as §1

barnyardgrass = assay type: in vivo, Echinochloa crus-galli; conditions: 0 to 10 scale
Source text: as §1

velvetleaf = assay type: in vivo, Abutilon theophrasti; conditions: 0 to 10 scale
Source text: as §1

cotton = assay type: in vivo, Gossypium hirsutum; conditions: 0 to 10 scale
Source text: as §1

lambsquarters = assay type: in vivo, Chenopodium album; conditions: 0 to 10 scale
Source text: as §1

wild oat = assay type: in vivo, Avena fatua; conditions: 0 to 10 scale
Source text: as §1

rape = assay type: in vivo, Brassica napus; conditions: 0 to 10 scale
Source text: as §1

barley = assay type: in vivo, Hordeum vulgare; conditions: 0 to 10 scale
Source text: as §1

blackgrass = assay type: in vivo, Alopecurus myosuroides; conditions: 0 to 10 scale
Source text: as §1

wild buckwheat = assay type: in vivo, Polygonum convolvulus; conditions: 0 to 10 scale
Source text: as §1

soybean = assay type: in vivo, Glycine max; conditions: 0 to 10 scale
Source text: as §1

chickweed = assay type: in vivo, Stellaria media; conditions: Rate 200 g/ha, 0 to 10 scale
Source text: as §1

bedstraw = assay type: in vivo, Galium aparine; conditions: 0 to 10 scale
Source text: as §1

corn = assay type: in vivo, Zea mays; conditions: 0 to 10 scale
Source text: as §1

giant foxtail = assay type: in vivo, Setaria faberii; conditions: 0 to 10 scale
Source text: as §1

Clc1ccc(-c2nn3c(c2Cl)CCCC3)c(Cl)c1 [Compound 35]
6: Plant response rating, Sorghum (sorghum; Rate 200 g/ha, POSTEMERGENCE) | Plant response rating, Crabgrass (crabgrass; POSTEMERGENCE, Rate 200 g/ha) | Plant response rating, Rice (rice; Rate 200 g/ha, POSTEMERGENCE) | Plant response rating, Rape (rape; POSTEMERGENCE, Rate 50 g/ha) | Plant response rating, Wild buckwheat (wild buckwheat; POSTEMERGENCE, Rate 50 g/ha)
2: Plant response rating, Wheat (wheat; POSTEMERGENCE, Rate 50 g/ha) | Plant response rating, Nutsedge (purple nutsedge; Rate 200 g/ha, PREEMERGENCE) | Plant response rating, Morningglory (morningglory; Rate 200 g/ha, PREEMERGENCE) | Plant response rating, Cocklebur (cocklebur; Rate 200 g/ha, PREEMERGENCE) | Plant response rating, Rice (rice; Rate 200 g/ha, PREEMERGENCE) | Plant response rating, Velvetleaf (velvetleaf; PREEMERGENCE, Rate 50 g/ha) | Plant response rating, Barley (barley; POSTEMERGENCE, Rate 50 g/ha) | Plant response rating, Giant foxtail (giant foxtail; PREEMERGENCE, Rate 50 g/ha)
7: Plant response rating, Wheat (wheat; Rate 200 g/ha, PREEMERGENCE) | Plant response rating, Morningglory (morningglory; Rate 200 g/ha, POSTEMERGENCE) | Plant response rating, Cocklebur (cocklebur; POSTEMERGENCE, Rate 200 g/ha) | Plant response rating, Barnyardgrass (barnyardgrass; Rate 200 g/ha, PREEMERGENCE) | Plant response rating, Bedstraw (bedstraw; POSTEMERGENCE, Rate 50 g/ha) | Plant response rating, Corn (corn; POSTEMERGENCE, Rate 200 g/ha) | Plant response rating, Giant foxtail (giant foxtail; Rate 200 g/ha, POSTEMERGENCE)
9: Plant response rating, Sugar beet (sugar beet; POSTEMERGENCE, Rate 50 g/ha) | Plant response rating, Crabgrass (crabgrass; Rate 200 g/ha, PREEMERGENCE) | Plant response rating, Barnyardgrass (barnyardgrass; POSTEMERGENCE, Rate 200 g/ha) | Plant response rating, Cotton (cotton; POSTEMERGENCE, Rate 50 g/ha) | Plant response rating, Lambsquarter (lambsquarters; POSTEMERGENCE, Rate 50 g/ha) | Plant response rating, Rape (rape; Rate 200 g/ha, POSTEMERGENCE) | Plant response rating, Chickweed (chickweed; PREEMERGENCE) | Plant response rating, Bedstraw (bedstraw; POSTEMERGENCE, Rate 200 g/ha) | Plant response rating, Giant foxtail (giant foxtail; Rate 200 g/ha, PREEMERGENCE)
4: Plant response rating, Sugar beet (sugar beet; Rate 200 g/ha, PREEMERGENCE) | Plant response rating, Crabgrass (crabgrass; PREEMERGENCE, Rate 50 g/ha) | Plant response rating, Cotton (cotton; Rate 200 g/ha, PREEMERGENCE) | Plant response rating, Wild oat (wild oat; Rate 200 g/ha, POSTEMERGENCE) | Plant response rating, Barley (barley; POSTEMERGENCE, Rate 200 g/ha) | Plant response rating, Blackgrass (blackgrass; POSTEMERGENCE, Rate 200 g/ha) | Plant response rating, Blackgrass (blackgrass; Rate 200 g/ha, PREEMERGENCE) | Plant response rating, Soybean (soybean; POSTEMERGENCE, Rate 50 g/ha) | Plant response rating, Corn (corn; POSTEMERGENCE, Rate 50 g/ha) | Plant response rating, Giant foxtail (giant foxtail; POSTEMERGENCE, Rate 50 g/ha)
10: Plant response rating, Sugar beet (sugar beet; Rate 200 g/ha, POSTEMERGENCE) | Plant response rating, Velvetleaf (velvetleaf; Rate 200 g/ha, POSTEMERGENCE) | Plant response rating, Velvetleaf (velvetleaf; Rate 200 g/ha, PREEMERGENCE) | Plant response rating, Cotton (cotton; POSTEMERGENCE, Rate 200 g/ha) | Plant response rating, Lambsquarter (lambsquarters; PREEMERGENCE, Rate 50 g/ha) | Plant response rating, Lambsquarter (lambsquarters; Rate 200 g/ha, POSTEMERGENCE) | Plant response rating, Lambsquarter (lambsquarters; Rate 200 g/ha, PREEMERGENCE) | Plant response rating, Wild buckwheat (wild buckwheat; Rate 200 g/ha, POSTEMERGENCE)
1: Plant response rating, Cheatgrass (cheatgrass; PREEMERGENCE, Rate 50 g/ha) | Plant response rating, Nutsedge (purple nutsedge; POSTEMERGENCE, Rate 50 g/ha) | Plant response rating, Barnyardgrass (barnyardgrass; PREEMERGENCE, Rate 50 g/ha) | Plant response rating, Wild buckwheat (wild buckwheat; Rate 200 g/ha, PREEMERGENCE)
5: Plant response rating, Cheatgrass (cheatgrass; POSTEMERGENCE, Rate 200 g/ha) | Plant response rating, Cheatgrass (cheatgrass; Rate 200 g/ha, PREEMERGENCE) | Plant response rating, Wheat (wheat; Rate 200 g/ha, POSTEMERGENCE) | Plant response rating, Sorghum (sorghum; POSTEMERGENCE, Rate 50 g/ha) | Plant response rating, Morningglory (morningglory; POSTEMERGENCE, Rate 50 g/ha) | Plant response rating, Cocklebur (cocklebur; POSTEMERGENCE, Rate 50 g/ha) | Plant response rating, Rice (rice; POSTEMERGENCE, Rate 50 g/ha) | Plant response rating, Barnyardgrass (barnyardgrass; POSTEMERGENCE, Rate 50 g/ha) | Plant response rating, Soybean (soybean; Rate 200 g/ha, POSTEMERGENCE)
3: Plant response rating, Cheatgrass (cheatgrass; POSTEMERGENCE, Rate 50 g/ha) | Plant response rating, Sorghum (sorghum; Rate 200 g/ha, PREEMERGENCE) | Plant response rating, Crabgrass (crabgrass; POSTEMERGENCE, Rate 50 g/ha) | Plant response rating, Nutsedge (purple nutsedge; Rate 200 g/ha, POSTEMERGENCE) | Plant response rating, Wild oat (wild oat; POSTEMERGENCE, Rate 50 g/ha) | Plant response rating, Blackgrass (blackgrass; POSTEMERGENCE, Rate 50 g/ha) | Plant response rating, Soybean (soybean; Rate 200 g/ha, PREEMERGENCE) | Plant response rating, Chickweed (chickweed; POSTEMERGENCE) | Plant response rating, Corn (corn; Rate 200 g/ha, PREEMERGENCE)
8: Plant response rating, Velvetleaf (velvetleaf; POSTEMERGENCE, Rate 50 g/ha) | Plant response rating, Bedstraw (bedstraw; Rate 200 g/ha, PREEMERGENCE)
0: Plant response rating, Wheat (wheat; PREEMERGENCE, Rate 50 g/ha) | Plant response rating, Sugar beet (sugar beet; PREEMERGENCE, Rate 50 g/ha) | Plant response rating, Sorghum (sorghum; PREEMERGENCE, Rate 50 g/ha) | Plant response rating, Nutsedge (purple nutsedge; PREEMERGENCE, Rate 50 g/ha) | Plant response rating, Morningglory (morningglory; PREEMERGENCE, Rate 50 g/ha) | Plant response rating, Cocklebur (cocklebur; PREEMERGENCE, Rate 50 g/ha) | Plant response rating, Rice (rice; PREEMERGENCE, Rate 50 g/ha) | Plant response rating, Cotton (cotton; PREEMERGENCE, Rate 50 g/ha) | Plant response rating, Wild oat (wild oat; PREEMERGENCE, Rate 50 g/ha) | Plant response rating, Rape (rape; PREEMERGENCE, Rate 50 g/ha) | Plant response rating, Barley (barley; PREEMERGENCE, Rate 50 g/ha) | Plant response rating, Barley (barley; Rate 200 g/ha, PREEMERGENCE) | Plant response rating, Blackgrass (blackgrass; PREEMERGENCE, Rate 50 g/ha) | Plant response rating, Wild buckwheat (wild buckwheat; PREEMERGENCE, Rate 50 g/ha) | Plant response rating, Soybean (soybean; PREEMERGENCE, Rate 50 g/ha) | Plant response rating, Bedstraw (bedstraw; PREEMERGENCE, Rate 50 g/ha) | Plant response rating, Corn (corn; PREEMERGENCE, Rate 50 g/ha)
